Earlier results in patent US20140271704A1, “METHODS OF PRODUCING NUTRITIONAL SUPPLEMENTS USING MUSHROOMS FROM THE SPECIES Poria cocos OR Flammulina velutipes” (JARROW FORMULAS, INC., priority 2013, published 2014).

Key:
homocysteine = settings: human; compared with racemic mixtures of equal amounts of L- and D-isomer
[1] = oral, animal

Compound	reduction of homocysteine versus racemic mixture (homocysteine)	absorption from the intestinal tract [1]
CN1c2c(nc(N)[nH]c2=O)NCC1CNc1ccc(C(=O)N[C@@H](CCC(=O)O)C(=O)O)cc1 (single isomer, unassigned) [L-isomer of 5-MTHF, 5-methyltetrahydrofolate]	superior to racemic mixtures	
CN1c2c(nc(N)[nH]c2=O)NCC1CNc1ccc(C(=O)N[C@@H](CCC(=O)O)C(=O)O)cc1 (some centres unmarked) [5-MTHF, 5-methyltetrahydrofolate]		readily absorbed from the intestinal tract without degradation
